# Test results taken from patent US10342839B2, “Essential oil compositions and applications utilizing essential oils” (Ralco Nutrition, Inc., priority 2015, dated 2019).
# Key:
# [1] = ORAC against peroxyl radicals; conditions: trolox equivalents
# From the text: (§1) Table 4 illustrates the ORAC scores for oregano essential oil (Origanum vulgare), thyme essential oil (Thymus vulgaris), cinnamaldehyde, and ActiFibe (50 wt. % larch arabinogalactan, 50 wt. % water) against 5 of the most common detrimental ROS: peroxyl radicals (RO2), hydroxyl radicals (OH^−1), peroxynitrate (ONO2^−1; H2O2+NO2^−1), superoxide anion (O2^−1), and singlet oxygen (O2). Results are expressed as trolox equivalents (TE/100 g) for each composition: […]
# [2] = 3-oil screening trial, 35 days, broilers with cocci stress; assay type: in vivo, Cobb 500 cockerels; conditions: 0.75 pounds per ton of feed
# From the text: 640 1-day-old Cobb 500 cockerels were wing banded, weighed and randomly assigned to pens on the day of delivery. Each pen was 3 feet wide by 2 feet long by 2 feet tall holding 10 birds each; density was 0.6 sq. ft. per bird. The pens were contained within two battery cages in a single barn, each with battery cage having 4 levels and 8 pens per level for a total of 32 pens per battery. The experimental period was 35 days divided into three (3) feeding stages, starter, grower and finisher. Bird weight, average daily gain (ADG), average daily feed intake (ADFI), feed to gain (FG) and Coccidiosis oocyte counts were determined at each period. This study was performed with a large number of treatments in order to screen a number of possible treatments for further future investigations. […]
# [3] = ORAC against peroxynitrite; conditions: trolox equivalents
# From the text: as §1
# [4] = ORAC against superoxide anion; conditions: trolox equivalents
# From the text: as §1
# [5] = ORAC against hydroxyl radicals; conditions: trolox equivalents
# From the text: as §1
# [6] = ORAC against singlet oxygen; conditions: trolox equivalents
# From the text: as §1
# [7] = Total ORAC over the five ROS; conditions: sum over the five oxygen species
# From the text: as §1
smiles,measurement,setting,value
"O=CC=Cc1ccccc1 [Cinnamaldehyde, cinnamaldehyde]","Oxygen Radical Absorbance Capacity, Peroxyl radical",[1],"18,800 TE/100 g"
same,Average bird weights at 35 days,[2],2180.2 grams
same,"Oxygen Radical Absorbance Capacity, Peroxynitrite",[3],"3,500 TE/100 g"
same,"Oxygen Radical Absorbance Capacity, Superoxide anion",[4],"978,900 TE/100 g"
same,"Oxygen Radical Absorbance Capacity, Hydroxyl radical",[5],"49,300 TE/100 g"
same,"Oxygen Radical Absorbance Capacity, Singlet oxygen",[6],"90,800 TE/100 g"
same,Total ORAC,[7],"1,141,300 TE/100 g"
